Test results reported in EP1988080A1, “Insecticidal substituted 2-aminoindanes” (Bayer CropScience AG, priority 2007, dated 2008).

Tests used:
[1] = tested on: Myzus persicae; test: Myzus persicae-test (Spray application); format: in vivo; conditions: application rate of 500 g/ha; spray on Chinese cabbage leaf-disks, all instars
Protocol: Myzus persicae-test (Spray application)
(§1) To produce a suitable preparation of active compound, 1 part by weight of active compound is mixed with the stated amount of solvent and emulsifier, and the concentrate is diluted with emulsifier-containing water to the desired concentration.
Chinese cabbage (Brassica pekinensis) leaf-disks infected with all instars of the green peach aphid (Myzus persicae), are sprayed with a preparation of the active ingredient at the desired concentration.
(§2) After the specified period of time, mortality in % is determined. 100 % means that all aphids have been killed; o % means that none of the […] have been killed.

[2] = tested on: Myzus persicae; test: Myzus-test (oral); format: in vivo; conditions: oral (suction)
Protocol: as §1
Hollow-ware are located with all instars of the green peach aphid (Myzus persicae). The treatement is carried out by suction of the preparation of active compound of the desired concentration.
as §2

[3] = tested on: Tetranychus urticae; test: Tetranychus-test, OP-resistant (spray application); format: in vivo; conditions: spray on French bean
Protocol: Tetranychus-test, OP-resistant (spray application)
as §1
French bean (Phaseolus vulgaris) which are heavily infested with all stages of the two spotted spidermite (Tetranychus urticae), are sprayed with a preparation of the active ingredient at the desired concentration.
(§3) After the specified period of time, mortality in % is determined. 100 % means that all spider mites have been killed; o % means that none of the […] have been killed.

[4] = logP determination (PhysData, logP^1); conditions: for logP^1: stated in preparation examples; for PhysData (logP (HCOOH)): HPLC gradient method, acetonitrile/0.1% HCOOH, EEC-Directive 79/831, Annex V.A8
[5] = tested on: Boophilus microplus; test: Boophilus microplus-test (injection); format: in vivo; conditions: application rate of 20 µg/animal; injection in the abdomen
Protocol: Boophilus microplus-test (injektion)
as §1
The solution of the active compound is injected in the abdomen (Boophilus microplus); the animals are transferred into a cup and stayed in a rooming with an air condition.
After the specified period of time, the efficiany mortality in % is determined. 100 % means that no tick has lay fertile eggs.

[6] = physchem
[7] = tested on: Phaedon cochleariae; test: Phaedon-test (spray application); format: in vivo; conditions: application rate of 500 g/ha; spray on Chinese cabbage leaf-disks, larvae
Protocol: Phaedon-test (spray application)
as §1
Chinese cabage (Brassica pekinesis) leafs-disks are treated by being sprayed with the preparation of the active compound of the desired concentration nd are, after drying, infested with mustard beetle larvae (Phaedon cochleariae).
as §3

[8] = Table I-1, cells marked (A) are 1H-NMR, not logP

Structure (SMILES)	activity (mortality in %) [1]	PhysData (logP^1) [4, 8]	chromatographic logP [6]	further results
c1ccc2c(c1)CC(N=C1NCCO1)C2 [1-1, 2-[2-(2,3-dihydro-1H-inden)-amino]-4,5-dihydrooxazole]	≥ 80%	0.81		activity (mortality in %) ([2]; application rate of 20 ppm): ≥ 80%; activity (mortality in %) ([3]; application rate of 100 g/ha): ≥ 80%
CNC(=S)N1CCOC1=NC1Cc2ccccc2C1 [1-2]	≥ 80%	2.36		activity (mortality in %) ([2]; application rate of 20 ppm): ≥ 80%; logP^1 [4]: 2.36
CCNC(=S)N1CCOC1=NC1Cc2ccccc2C1 [1-5]	≥ 80%	3.46		
FC(F)(F)CNC(=S)N1CCOC1=NC1Cc2ccccc2C1 [1-6]	≥ 80%	4.28		
COCCNC(=S)N1CCOC1=NC1Cc2ccccc2C1 [1-7]	≥ 80%		3.25	activity (mortality in %) ([3]; application rate of 500 g/ha): ≥ 80%; efficiency (100 % means that no tick has lay fertile eggs) [5]: ≥ 80%
COC(=O)CNC(=S)N1CCOC1=NC1Cc2ccccc2C1 [1-8]		3.20		activity (mortality in %) ([2]; application rate of 20 ppm): ≥ 80%
CC(=O)NC(=S)N1CCOC1=NC1Cc2ccccc2C1 [1-10]		2.53		
O=C(NC(=S)N1CCOC1=NC1Cc2ccccc2C1)c1ccccc1 [1-11]		3.11		
COC(CNC(=S)N1CCOC1=NC1Cc2ccccc2C1)OC [1-12]	≥ 80%		3.6	activity (mortality in %) [7]: ≥ 80%
CCCC(C)NC(=S)N1CCOC1=NC1Cc2ccccc2C1 (centres unmarked) [1-13]	≥ 80%		5	activity (mortality in %) [7]: ≥ 80%
CCC(CC)NC(=S)N1CCOC1=NC1Cc2ccccc2C1 [1-14]	≥ 80%	4.90		
S=C(NCC1CC1)N1CCOC1=NC1Cc2ccccc2C1 [1-16]	≥ 80%	3.24		
C=CCNC(=S)N1CCOC1=NC1Cc2ccccc2C1 [1-17]	≥ 80%	3.75		
CCCNC(=S)N1CCOC1=NC1Cc2ccccc2C1 [1-18]	≥ 80%	3.94		
CCCCNC(=S)N1CCOC1=NC1Cc2ccccc2C1 [1-19]	≥ 80%	4.46		
CC(NC(=S)N1CCOC1=NC1Cc2ccccc2C1)C(F)(F)F (centres unmarked) [1-20]	≥ 80%	4.62		
CC(C)CNC(=S)N1CCOC1=NC1Cc2ccccc2C1 [1-21]	≥ 80%	4.51		
COC(=O)CCNC(=S)N1CCOC1=NC1Cc2ccccc2C1 [1-22]	≥ 80%	3.2		
CCOC(=O)CC(C)NC(=S)N1CCOC1=NC1Cc2ccccc2C1 (centres unmarked) [1-23]		4.0		activity (mortality in %) [7]: ≥ 80%

Structure (SMILES)	activity (mortality in %) [1]	PhysData (logP^1) [4, 8]	chromatographic logP [6]	further results
COC(=O)CCCNC(=S)N1CCOC1=NC1Cc2ccccc2C1 [1-24]		3.6		
COC(=O)C(NC(=S)N1CCOC1=NC1Cc2ccccc2C1)C(C)C (centres unmarked) [1-25]	≥ 80%	4.4		
CCOC(=O)C(C)NC(=S)N1CCOC1=NC1Cc2ccccc2C1 (centres unmarked) [1-26]	≥ 80%	4.2		
CCC(NC(=S)N1CCOC1=NC1Cc2ccccc2C1)C(=O)OC (centres unmarked) [1-27]	≥ 80%	4.0		
S=C(NCC1CCCO1)N1CCOC1=NC1Cc2ccccc2C1 (centres unmarked) [1-28]	≥ 80%		3.6	
FC(F)(F)C1CCC(NC(=S)N2CCOC2=NC2Cc3ccccc3C2)CC1 (centres unmarked) [1-29]			5.1	
CC(C)NC(=S)N1CCOC1=NC1Cc2ccccc2C1 [1-30]	≥ 80%	4.0		
S=C(NC1CC1)N1CCOC1=NC1Cc2ccccc2C1 [1-31]		3.5		
S=C(NC1CCCC1)N1CCOC1=NC1Cc2ccccc2C1 [1-32]	≥ 80%		4.74	
FC(F)(F)C1CCCC(NC(=S)N2CCOC2=NC2Cc3ccccc3C2)C1 (centres unmarked) [1-33]			4.7	
S=C(NCc1ccccc1)N1CCOC1=NC1Cc2ccccc2C1 [1-34]		5.2		
CC(NC(=S)N1CCOC1=NC1Cc2ccccc2C1)c1ccccc1 (centres unmarked) [1-35]		4.4		
S=C(NCc1ccc(Cl)cc1)N1CCOC1=NC1Cc2ccccc2C1 [1-36]	≥ 80%		4.9	
S=C(NCc1cccc(Cl)c1)N1CCOC1=NC1Cc2ccccc2C1 [1-37]	≥ 80%		4.9	
S=C(NCc1ccccc1Cl)N1CCOC1=NC1Cc2ccccc2C1 [1-38]			4.9	
S=C(NCc1ccc2c(c1)OCO2)N1CCOC1=NC1Cc2ccccc2C1 [1-39]	≥ 80%		4.1	
S=C(NCCc1ccccc1)N1CCOC1=NC1Cc2ccccc2C1 [1-40]		4.6		
S=C(NCCc1ccc(Cl)cc1)N1CCOC1=NC1Cc2ccccc2C1 [1-41]			5.1	
S=C(NCc1cccnc1)N1CCOC1=NC1Cc2ccccc2C1 [1-42]	≥ 80%		2	

Structure (SMILES)	activity (mortality in %) [1]	PhysData (logP^1) [4, 8]	chromatographic logP [6]	further results
CC(NC(=S)N1CCOC1=NC1Cc2ccccc2C1)c1ccc(Cl)cc1 (centres unmarked) [1-43]			5.3	
CC(NC(=S)N1CCOC1=NC1Cc2ccccc2C1)c1ccccc1Cl (centres unmarked) [1-44]			5.2	
CC(NC(=S)N1CCOC1=NC1Cc2ccccc2C1)c1cccc(Cl)c1 (centres unmarked) [1-45]	≥ 80%		5.3	
Cc1ccc(CNC(=S)N2CCOC2=NC2Cc3ccccc3C2)cc1 [1-46]			4.8	
Fc1ccc(CNC(=S)N2CCOC2=NC2Cc3ccccc3C2)cc1 [1-47]			4.4	
COc1ccc(CNC(=S)N2CCOC2=NC2Cc3ccccc3C2)cc1OC [1-48]			3.7	
S=C(NCc1ccc(Cl)cc1Cl)N1CCOC1=NC1Cc2ccccc2C1 [1-49]			5.7	
S=C(Nc1ccccn1)N1CCOC1=NC1Cc2ccccc2C1 [1-50]	≥ 80%		1.6	activity (mortality in %) [7]: ≥ 80%
Fc1ccc2c(c1)CC(N=C1NCCO1)C2 (centres unmarked) [1-64]		0.73		
S=C(NCCc1cccc(Cl)c1)N1CCOC1=NC1Cc2ccccc2C1 [1-120]			5.1	
c1ccc2c(c1)CC(NC1=NCCS1)C2 [2-1, 2-[2-(2,3-dihydro-1H-inden)-amino]-4,5-dihydrothiazole]				PhysData (logP^1) ([4]; Table I-2): 0.66
CNC(=S)N1CCSC1=NC1Cc2ccccc2C1 [2-2]				PhysData (logP^1) ([4]; Table I-2): 4.05
FC(F)(F)CNC(=S)N1CCSC1=NC1Cc2ccccc2C1 [2-6]				PhysData (logP^1) ([4]; Table I-2): 4.80; logP^1 [4]: 4.8
COCCNC(=S)N1CCSC1=NC1Cc2ccccc2C1 [2-7]				PhysData (logP^1) ([4]; Table I-2): 4.11
CCOC(=O)CNC(=S)N1CCSC1=NC1Cc2ccccc2C1 [2-8]				PhysData (logP^1) ([4]; Table I-2): 4.41
c1ccc2c(c1)CC(NC1=NCCN1)C2 [3-1]				PhysData (logP (HCOOH)) ([4]; Table I-3): 0.52
COCCNC(=S)N1CCNC1=NC1Cc2ccccc2C1 [3-7]				PhysData (logP (HCOOH)) ([4]; Table I-3): 1.46; logP^1 [4]: 1.46
O=C(NCCCl)NC1Cc2ccccc2C1 [4-1]	≥ 80%			activity (mortality in %) ([2]; application rate of 100 ppm): ≥ 80%; PhysData (logP (HCOOH)) ([4]; Table 1-4): 1.92
